According to patent US12708644B2, “Dendritic cell vaccination sequential to chemotherapy” (Excoso a.s., priority 2018, dated 2026):
Like-named read-outs stand apart in the source and are kept apart here. Marks after values point to notes of the source that are not given here.

Assays:
[1] = system: first-line patients of ovarian carcinoma; details: cited from earlier work; for OS HR: compared to patients not treated with bevacizumab; for PFS HR: continuous after combination with carboplatin/paclitaxel
[2] = system: women with newly diagnosed epithelial ovarian carcinoma
Protocol: The study was conducted as an open label, multicenter, three-arm phase II clinical trial in women with newly diagnosed epithelial ovarian carcinoma, who have undergone debulking surgery.
The planned number of chemotherapy cycles was 6 in all treatment groups (FIG. 1).
Results were calculated either by using as beginning of the trial period the time of first treatment or the time of randomization. Two pre-planned per protocol interim analyses of PFS and OS from the date of randomization were performed first at 6 months and second at 12 months after the last dose of standard of care chemotherapy of the last enrolled patient. […]
A log-rank test was used for comparing the PFS and OS distributions of the two treatment groups: • H01: PFS/OS group A=PFS/OS group C vs H11: PFS/OS group C≠PFS/OS group A, • H02: PFS/OS group B=PFS/OS group C vs H12: PFS/OS group C≠PFS/OS group B.
The hazard ratio (HR) was calculated using Cox proportional hazard regression. The estimate for the HR was based on fitting a proportional hazards regression model: λ(t)=λ0(t)*exp(βz), • wherein λ0(t) is the baseline hazard function for group C, λ(t) is the hazard function for group A/group B, z is a binary covariate (being 1 for group A/group B and 0 for group C), and exp(β) is the HR. Efficacy in the ITT Population

[3] = bevacizumab 7.5 mg/kg IV q3w, 12 months
[4] = bevacizumab 15 mg/kg IV q3w, 15 months
[5] = treatment group C (standard of care chemotherapy alone), shorter reporting time period

Substance	OS HR [1, 3]	OS HR ([1]; bevacizumab 7.5 mg/kg IV q3w, 12 months, listed as Bevacizumab)	PFS HR [1, 3]	OS HR [1, 4]	OS HR ([1]; bevacizumab 15 mg/kg IV q3w, 15 months, listed as Bevacizumab)	PFS HR [1, 4]	Safety ([1]; side effects e.g. gastrointestinal perforation and fistulae, wound healing complications, hypertension, thromboembolism or haemorrhage, congestive heart failure, neutropenia and infections)	patients who have died ([2]; standard of care arm (group C), per-protocol population, more than 3.5 years after inclusion)	SAEs reported [2, 5]	patients with SAEs [2, 5]
bevacizumab	0.99	0.99^c	0.86^c	0.88	0.88^c	0.7^c	an increased risk for	–	–	–
carboplatin and paclitaxel	–	–	–	–	–	–	–	about 40%	14	9
